Experimental findings from patent publication US8247183B2, “Compositions and methods for diagnosis and treatment of tumors” (The United States of America, as represented by the …, priority 2006, dated 2012) are described below.

For experiment [1], the target named is T1, Human MMP-9 (Homo sapiens, UniProt P14780).
T1 construct: purchased Calbiochem, CA
Put plainly: OPN cleavage assay with MMP-9 and MMP inhibitors. In kind it is biochemical. Particulars: Western blot after 1-hour digestion at 37° C.; EDTA 10 mM, MMP-9 inhibitor I 2 μM, TIMP-1 0.1 μM.
Protocol: OPN cleavage assays were performed as follows. Human MMP-9 (Calbiochem, CA) was incubated at 37° C. for 3 hours with recombinant human OPN (R&D systems, MN) at an optimized ratio (5:1 substrate:enzyme) in a buffered solution (200 mM NaCl, 5 mM CaCl, 50 mM Tris-C1, pH 7.5). Digested OPN was analyzed by 16% tris-glycine SDS-PAGE followed by colloidal coomassie blue staining (SimplyBlue™, Invitrogen, CA). Separate cleavage reactions (2 μg OPN) were transferred to PDVF membranes for amino-end terminal microsequencing.
For western blot analysis, MMP-9-digested OPN samples and whole cell lysates (50 μg) were transferred to 0.22 um PVDF membranes and probed with a polyclonal antibody generated to a 14-residue peptide just downstream of the residue 169 thrombin cleavage site ([sequence]; amino acids 169-183 of SEQ ID NO: 2) (Abcam, MA). HEK-293 cell lysates were probed with an anti-FLAG antibody (Sigma, Mo.). Immuno-reactive proteins were detected by chemilluminescence (ECL, GE Healthcare Life Sciences, NJ).

Experiment [2] relates to SMMC-7721 SC2 cells. Put plainly: Matrigel invasion assay with short overlapping peptides of OPN-5kD. The experiment is classed as cell-based, human. Particulars: 36 hours; for effect on OPN-5kD induced invasion, separate addition: in conjunction with OPN-5kD, 1:1 molar, 2 μM each; for cellular invasion relative to media alone treated cells: peptide alone, 2 μM, p<0.05. From the text: A 44 residue peptide corresponding to the OPN-5kD fragment (SEQ ID NO: 4), was synthesized and purified >97% by HPLC (EZBiolabs, IN). A series of short peptides spanning the region of residues 167-210 of OPN (SEQ ID NO: 2) were generated as follows. Eight small overlapping peptides spanning the OPN-5kD peptide were similarly synthesized to >75% purity (p1=[…], amino acids 167-176 of SEQ ID NO: 2; p2=[…], amino acids 172-181 of SEQ ID NO: 2; p3=[…], amino acids 177-186 of SEQ ID NO: 2; p4=[…], amino acids 182-191 of SEQ ID NO: 2; p5=[…], amino acids 187-196 of SEQ ID NO: 2; p6=[…], amino acids 192-201 of SEQ ID NO: 2; p7=[…], amino acids 197-206 of SEQ ID NO: 2; and p8=[…] amino acids 202-210 of SEQ ID NO: 2) (EZBiolabs, IN). The lyophilized peptides were resuspended in PBS and applied with cells to the upper wells of Matrigel invasion chambers at equal molar concentrations (2 μM). Invading cells were measured after 36 hours following calcein incorporation as described in the examples above.

Experiment [3] relates to SMMC-7721-SC2 cells. Kind of experiment: Cellular adhesion with exogenous intact or MMP-9 cleaved OPN. In kind it is cell-based, human. The conditions noted are these: GRGDS peptide 400 μM; OPN 250 nM. The procedure:
Cellular adhesion was measured using the following methods. SMMC-7721-SC2 cells were seeded into the wells of a 96-well fluorescent-read plate in serum-free media (6×10^4 cells/well) with human OPN (0-250 nM) with or without prior digestion by MMP-9. Media and MMP-9 alone treated cells were included as controls. A GRGDS blocking peptide (400 μM) was added to separate media control, intact OPN, and MMP-9 cleaved OPN (250 nM) conditions. Non-adherent cells were removed with a PBS wash (100 μl) after one hour and adherent cells were quantified by CyQuant GR dye incorporation (Molecular Probes, OR) and detection at EX485, EM530.

The subject of experiment [4] is SMMC-7721-SC2 cells. Put plainly: Adhesion of cells transfected with OPN expression constructs. In kind it is cell-based, human. The conditions noted are these: 30-60 minutes. As to the method:
To determine the affect of OPN fragments on adhesion, the following methods were used. SMMC-7721-SC2 cells (1×10^6) were trypsinized (E-PET, Biosource, CA) and transfected with the four OPN expression constructs shown in FIG. 3A and empty vector DNA (5 μg) (50-60% efficiency) using optimized conditions (Nucleofection, AMAXA, MD) and plated to 6-well plates. After a 24-hour recovery period, the cells were trypsinized and seeded by equal numbers (6×10^4) into fluorescent-read 96-well plates in serum-free media. Non-adherent cells were removed with a PBS wash after 2-60 minutes and fluorescence was quantified at EX485, EM530.

For experiment [5], the system named is SMMC-7721-SC2 cells. Kind of experiment: Migration assay of cells transfected with OPN constructs. In kind it is cell-based, human. Particulars: vector controls, 24, 36, 48 hours. The procedure: (§1) Migration and invasion assays were performed as follows. Transfected SMMC-7721-SC2 cells (transfected with 5 μg plasmid DNA) were allowed to recover in 5% serum containing media and were re-counted prior to dilution in serum-free media. Cells were seeded (5×10^4) into the upper chambers of Matrigel coated 8 um pore membranes (HTSTM Fluoroblok tumor invasion system, BD Biosciences, MA) or uncoated […] pore membranes (HTSTM Fluoroblok insert system, BD Biosciences, MA). Media containing serum (5%) was added to the lower chambers as a chemotactic agent. Blocking antibodies to either the integrin αVβ3 receptor (clone LM609, Chemicon, CA) or a common determinant of the CD44 receptors (clone A020, Calbiochem, CA) were added to the upper chambers (4 μg/ml) at the time of cell seeding. Migrated cells were labeled with calcein AM (Molecular Probes, OR) at 37° C. for 1 hour, and fluorescence was measured at 24, 36, and 48 hours (EX 490 nm, EM 530 nm).

Experiment [6] deals with SMMC-7721-SC2 cells. Put plainly: Matrigel invasion assay (OPN constructs, blocking antibodies, OPN-5kD peptide). The experiment is classed as cell-based, human. Particulars: 36 hours. The procedure: as §1
Cell invasion was measured as described in Example 4. Briefly, each of the OPN vectors shown in FIG. 3A (5 μg) were separately transfected into SMMC-7721 cells (1×10^6) using optimized conditions (Nucleofection, AMAXA). […] After 36 hours, the invaded cells were labeled with calcein at 37° C. for 1 hour and fluorescence was measured (EX485, EM530).
To determine the effect of blocking antibodies to the integrin aV133 and CD44 receptors on the affect of invasion of HCC cells expression OPN full-length or OPN-5 kD, integrin αVβ3 (Chemicon, CA) or CD44 (Calbiochem, CA) blocking antibodies were added (4 μg/ml) to cells transiently expressing OPN full-length and OPN-5kD. Invading cells were measured at 36 hours following calcein incorporation as described above.
To determine the effect of varying concentrations of the OPN-5kD peptide on invasion of HCC cells, SMMC-7721 cells were exposed to increasing concentrations of the OPN-5kD peptide (0.4 μM, 1 μM and 2 μM) and invading cells were measured after 36 hours following calcein incorporation as described above. […]

T1 sequence (P14780 94-707): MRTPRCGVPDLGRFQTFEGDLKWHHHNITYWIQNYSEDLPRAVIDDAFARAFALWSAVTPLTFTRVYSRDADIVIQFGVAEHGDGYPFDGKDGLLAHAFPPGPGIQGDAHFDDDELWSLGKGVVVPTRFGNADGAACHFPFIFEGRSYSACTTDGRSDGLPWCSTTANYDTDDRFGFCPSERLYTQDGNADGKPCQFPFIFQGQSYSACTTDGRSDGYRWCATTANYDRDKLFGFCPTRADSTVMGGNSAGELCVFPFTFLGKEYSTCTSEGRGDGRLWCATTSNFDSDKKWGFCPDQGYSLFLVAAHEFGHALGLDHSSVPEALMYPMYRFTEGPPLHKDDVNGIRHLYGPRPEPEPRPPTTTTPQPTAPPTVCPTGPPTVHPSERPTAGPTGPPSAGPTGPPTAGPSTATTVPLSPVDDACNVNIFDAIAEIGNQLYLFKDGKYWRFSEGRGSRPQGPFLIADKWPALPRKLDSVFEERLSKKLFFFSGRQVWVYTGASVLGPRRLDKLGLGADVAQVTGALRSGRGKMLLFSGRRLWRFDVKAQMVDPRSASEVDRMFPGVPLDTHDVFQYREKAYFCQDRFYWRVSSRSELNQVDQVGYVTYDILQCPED

Take `O=C(O)CN(CCN(CC(=O)O)CC(=O)O)CC(=O)O` [EDTA]: the “inhibition of MMP-9 cleavage of OPN (OPN-5kD fragment detection)” value in experiment [1] is “partially inhibited”.

With “ELNGAYKAIP (listed as Homo sapiens) [p7]”, in experiment [2], the “effect on OPN-5kD induced invasion, separate addition” value (“effect on OPN-5kD induced invasion” for short) was “partial reduction in invasion” and the “cellular invasion relative to media alone treated cells” value is reported as “suppressive effect”.

Turning to GRGDS [GRGDS peptide], in experiment [3], the “blocking of intact and cleaved OPN-mediated adhesion” value was “blocked both intact and cleaved OPN-mediated adhesion”.

Consider “HMESEELNGA (listed as Homo sapiens) [p6]”, for which, in experiment [2], the “effect on OPN-5kD induced invasion” value was “partial reduction in invasion” and the “cellular invasion relative to media alone treated cells” value was “suppressive effect”.

As to “KKFRRPDIQY (listed as Homo sapiens) [p2]”, the “effect on OPN-5kD induced invasion” value in experiment [2] is recorded as “insignificant effect”.

Turning to “OPN-5kD: MMP-9 cleavage fragment of OPN, residues 167-210; expressed from FLAG-tagged construct”, the “adhesion after transient over-expression relative to controls, later time points” value in experiment [4] was “decreased adhesion”. For the same molecule, the “SMMC-7721-SC2 migration relative to controls” value in experiment [5] is “decreased migration”. Further, in experiment [6] (transfected cells, p=0.001), the “increase in cellular invasion” value is above 2 fold.

With “OPN-24 kD: OPN fragment residues 211-314; expressed from FLAG-tagged construct”, the “adhesion after transient over-expression relative to controls, later time points” value in experiment [4] is “decreased adhesion”. Besides, the “SMMC-7721-SC2 migration relative to controls” value in experiment [5] is “decreased migration”. The “cellular invasion compared to vector transfected cells” value in experiment [6] is given as “No significant difference”.

Take “PDIQYPDATD (listed as Homo sapiens) [p3]”: in experiment [2], the “effect on OPN-5kD induced invasion” value was “partial reduction in invasion” and the “cellular invasion relative to media alone treated cells” value was “suppressive effect”.

As to “full-length OPN: wild-type osteopontin protein (OPN-a) expressed from FLAG-tagged construct”, the “adhesion after transient over-expression relative to controls, later time points” value in experiment [4] was “increased adhesion”. Moreover, the “SMMC-7721-SC2 migration relative to controls” value in experiment [5] was “induced SMMC-7721-SC2 migration”. The “cellular invasion compared to vector transfected cells” value in experiment [6] is “slightly increased invasion”.
